In PubChem BioAssay AID1745844 (Carcinogenic Potency Database (CPDB), 2022) one finds TD50 and carcinogen call data, which are given here for four compounds.

This series relates to rodent lifetime carcinogenesis bioassay, tumor incidence TD50. Nature of the series: carcinogenic potency in animals, long-term in vivo studies, CPDB compilation (AID 1745844).

Structures are written as SMILES. The source made the active and inactive calls. How the calls were made is not given here.

With `Nc1ccc(Cc2ccc(N)cc2)cc1`, the TD50 – broadly, the dose at which the toxic effect under study appears in half of the subjects – is, setting by setting: (mouse, strain B6C3F1, females, in drinking water, site: all sites + liver + thyroid gland, lesion: malignant lymphoma, histiocytic type + malignant lymphoma, mixed type + malignant lymphoma, undifferentiated type + malignant, dosed 103 weeks, study length 104 weeks) 32.6 mg/kg/day; (mouse, strain B6C3F1, females, in drinking water, site: all sites, lesion: malignant lymphoma, histiocytic type + malignant lymphoma, mixed type + malignant lymphoma, undifferentiated type + malignant, dosed 103 weeks, study length 104 weeks) 64.7 mg/kg/day; (mouse, strain B6C3F1, females, in drinking water, site: any site (literature study), lesion: several types, types named in the paper, dosed 103 weeks, study length 104 weeks) 52.1 mg/kg/day; (mouse, strain B6C3F1, females, in drinking water, site: liver, lesion: hepatocellular adenoma + hepatocellular carcinoma + neoplastic nodule, dosed 103 weeks, study length 104 weeks) 59.3 mg/kg/day; (mouse, strain B6C3F1, females, in drinking water, site: liver, lesion: hepatocellular adenoma + hepatocellular carcinoma, dosed 103 weeks, study length 104 weeks) 59.3 mg/kg/day; (mouse, strain B6C3F1, females, in drinking water, site: liver, lesion: hepatocellular adenoma, dosed 103 weeks, study length 104 weeks) 135 mg/kg/day. For the same compound, the TD50 runs as follows: (mouse, strain B6C3F1, females, in drinking water, site: liver, lesion: hepatocellular carcinoma, dosed 103 weeks, study length 104 weeks) 137 mg/kg/day; (mouse, strain B6C3F1, females, in drinking water, site: lung, lesion: alveolar/bronchiolar adenoma + alveolar/bronchiolar carcinoma, dosed 103 weeks, study length 104 weeks) 268 mg/kg/day; (mouse, strain B6C3F1, females, in drinking water, site: lung, lesion: alveolar/bronchiolar adenoma, dosed 103 weeks, study length 104 weeks) 327 mg/kg/day; (mouse, strain B6C3F1, females, in drinking water, site: thyroid gland, lesion: follicular-cell adenoma + follicular-cell carcinoma, dosed 103 weeks, study length 104 weeks) 128 mg/kg/day; (mouse, strain B6C3F1, females, in drinking water, site: thyroid gland, lesion: follicular-cell adenoma, dosed 103 weeks, study length 104 weeks) 150 mg/kg/day; (mouse, strain B6C3F1, males, in drinking water, site: adrenal gland + liver + thyroid gland, lesion: pheochromocytoma + hepatocellular carcinoma + follicular-cell adenoma, dosed 103 weeks, study length 104 weeks) 28.7 mg/kg/day. Besides, the TD50 is, setting by setting: (mouse, strain B6C3F1, males, in drinking water, site: adrenal gland, lesion: pheochromocytoma, dosed 103 weeks, study length 104 weeks) 70 mg/kg/day; (mouse, strain B6C3F1, males, in drinking water, site: any site (literature study), lesion: several types, types named in the paper, dosed 103 weeks, study length 104 weeks) 47.4 mg/kg/day; (mouse, strain B6C3F1, males, in drinking water, site: liver, lesion: hepatocellular adenoma + hepatocellular carcinoma + neoplastic nodule, dosed 103 weeks, study length 104 weeks) 17 mg/kg/day; (mouse, strain B6C3F1, males, in drinking water, site: liver, lesion: hepatocellular adenoma + hepatocellular carcinoma, dosed 103 weeks, study length 104 weeks) 17 mg/kg/day; (mouse, strain B6C3F1, males, in drinking water, site: liver, lesion: hepatocellular carcinoma, dosed 103 weeks, study length 104 weeks) 22.3 mg/kg/day; (mouse, strain B6C3F1, males, in drinking water, site: thyroid gland, lesion: follicular-cell adenoma, dosed 103 weeks, study length 104 weeks) 88.4 mg/kg/day. Also, the TD50 runs as follows: (rat, strain Fischer 344, females, in drinking water, site: any site (literature study), lesion: several types, types named in the paper, dosed 103 weeks, study length 105 weeks) 277 mg/kg/day; (rat, strain Fischer 344, females, in drinking water, site: liver, lesion: hepatocellular adenoma + hepatocellular carcinoma + neoplastic nodule, dosed 103 weeks, study length 105 weeks) 118 mg/kg/day; (rat, strain Fischer 344, females, in drinking water, site: thyroid gland, lesion: c-cell adenoma + c-cell carcinoma, dosed 103 weeks, study length 105 weeks) 70 mg/kg/day; (rat, strain Fischer 344, females, in drinking water, site: thyroid gland, lesion: c-cell adenoma + follicular-cell adenoma, dosed 103 weeks, study length 105 weeks) 22 mg/kg/day; (rat, strain Fischer 344, females, in drinking water, site: thyroid gland, lesion: c-cell adenoma, dosed 103 weeks, study length 105 weeks) 73.7 mg/kg/day; (rat, strain Fischer 344, females, in drinking water, site: thyroid gland, lesion: follicular-cell adenoma + follicular-cell carcinoma, dosed 103 weeks, study length 105 weeks) 27.2 mg/kg/day. Also, the TD50 was 33.5 mg/kg/day (rat, strain Fischer 344, females, in drinking water, site: thyroid gland, lesion: follicular-cell adenoma, dosed 103 weeks, study length 105 weeks); 12.5 mg/kg/day (rat, strain Fischer 344, males, in drinking water, site: liver + thyroid gland, lesion: neoplastic nodule + follicular-cell carcinoma, dosed 103 weeks, study length 105 weeks); 14.1 mg/kg/day (rat, strain Fischer 344, males, in drinking water, site: liver, lesion: hepatocellular adenoma + hepatocellular carcinoma + neoplastic nodule, dosed 103 weeks, study length 105 weeks); 14.3 mg/kg/day (rat, strain Fischer 344, males, in drinking water, site: liver, lesion: neoplastic nodule, dosed 103 weeks, study length 105 weeks); 49.5 mg/kg/day (rat, strain Fischer 344, males, in drinking water, site: thyroid gland, lesion: follicular-cell adenoma + follicular-cell carcinoma, dosed 103 weeks, study length 105 weeks); 85.4 mg/kg/day (rat, strain Fischer 344, males, in drinking water, site: thyroid gland, lesion: follicular-cell carcinoma, dosed 103 weeks, study length 105 weeks).

In the case of `FCCl`, the TD50 is, setting by setting: (rat, strain Alpk:APfSD, females, by gavage, site: stomach, lesion: carcinoma, dosed 52 weeks, study length 108 weeks) 2710 mg/kg/day; (rat, strain Alpk:APfSD, females, by gavage, site: stomach, lesion: fibrosarcoma, dosed 52 weeks, study length 108 weeks) 119 mg/kg/day; (rat, strain Alpk:APfSD, females, by gavage, site: stomach, lesion: sarcoma, dosed 52 weeks, study length 108 weeks) 2710 mg/kg/day; (rat, strain Alpk:APfSD, females, by gavage, site: stomach, lesion: several types, types named in the paper, dosed 52 weeks, study length 108 weeks) 26.5 mg/kg/day; (rat, strain Alpk:APfSD, females, by gavage, site: stomach, lesion: squamous-cell carcinoma, dosed 52 weeks, study length 108 weeks) 69.4 mg/kg/day; (rat, strain Alpk:APfSD, males, by gavage, site: stomach, lesion: fibrosarcoma, dosed 52 weeks, study length 100 weeks) 88.1 mg/kg/day. The TD50 (rat, strain Alpk:APfSD, males, by gavage, site: stomach, lesion: several types, types named in the paper, dosed 52 weeks, study length 100 weeks) was 28.5 mg/kg/day and the TD50 (rat, strain Alpk:APfSD, males, by gavage, site: stomach, lesion: squamous-cell carcinoma, dosed 52 weeks, study length 100 weeks) was 46.9 mg/kg/day.

Consider `O=S(=O)(O)NC1CCCCC1`, for which the TD50 by setting is: (monkey, strain Cynomolgus [Macaca fascicularis], both sexes, in feed, site: liver, lesion: hepatocellular carcinoma, dosed 1238 weeks, study length 1238 weeks) 1250 mg/kg/day; (monkey, strain Cynomolgus [Macaca fascicularis], both sexes, in feed, site: prostate, lesion: adenocarcinoma, dosed 1238 weeks, study length 1238 weeks) 35.6 mg/kg/day; (monkey, strain Rhesus [Macaca mulatta], both sexes, in feed, site: any site (literature study), lesion: malignant tumor, dosed 1251 weeks, study length 1251 weeks) 3160 mg/kg/day; (monkey, strain Rhesus [Macaca mulatta], both sexes, in feed, site: colon, lesion: adenocarcinoma, dosed 1251 weeks, study length 1251 weeks) 764 mg/kg/day; (monkey, strain Rhesus [Macaca mulatta], both sexes, in feed, site: thyroid gland, lesion: papillary adenoma, dosed 1251 weeks, study length 1251 weeks) 182 mg/kg/day; (mouse, strain (C3H x RIII)F1 (MTV+), males, in drinking water, site: any site (literature study), lesion: several types, types named in the paper, dosed 104 weeks, study length 104 weeks) 772 mg/kg/day. In addition, the TD50 (mouse, strain (C3H x RIII)F1 (MTV+), males, in drinking water, site: liver, lesion: several types, types named in the paper, dosed 104 weeks, study length 104 weeks) is 1420 mg/kg/day; the TD50 (mouse, strain (C3H x RIII)F1 (MTV+), males, in drinking water, site: lung, lesion: several types, types named in the paper, dosed 104 weeks, study length 104 weeks) is 4380 mg/kg/day; the TD50 (mouse, strain ASH-CS1, females, in feed, site: lung, lesion: adenoma, dosed 80 weeks, study length 82 weeks) is 228000 mg/kg/day (inactive); the TD50 (mouse, strain ASH-CS1, females, in feed, site: reticuloendothelium, lesion: lymphosarcoma, dosed 80 weeks, study length 82 weeks) is 16700 mg/kg/day (inactive); the TD50 (mouse, strain RIII (MTV+), males, in drinking water, site: any site (literature study), lesion: several types, types named in the paper, dosed 104 weeks, study length 104 weeks) was determined as 4670 mg/kg/day; the TD50 (mouse, strain RIII (MTV+), males, in drinking water, site: lung, lesion: several types, types named in the paper, dosed 104 weeks, study length 104 weeks) was found to be 4670 mg/kg/day. The TD50 by setting is: (mouse, strain XVII/G, females, in drinking water, site: any site (literature study), lesion: several types, types named in the paper, dosed 104 weeks, study length 104 weeks) 587 mg/kg/day; (mouse, strain XVII/G, females, in drinking water, site: liver, lesion: several types, types named in the paper, dosed 104 weeks, study length 104 weeks) 16000 mg/kg/day; (mouse, strain XVII/G, females, in drinking water, site: lung, lesion: several types, types named in the paper, dosed 104 weeks, study length 104 weeks) 587 mg/kg/day; (rat, strain Sprague-Dawley, both sexes, in feed, site: any site (literature study), lesion: malignant tumor, dosed 130 weeks, study length 130 weeks) 30700 mg/kg/day (inactive); (rat, strain Wistar, both sexes, in feed, site: urinary bladder, lesion: one or several types, types not named, dosed 104 weeks, study length 104 weeks) 83900 mg/kg/day. The carcinogen call is, setting by setting: (mouse, strain ASH-CS1, females, in feed, site: liver, lesion: one or several types, types not named, dosed 80 weeks, study length 82 weeks) “negative (inactive)”; (mouse, strain ASH-CS1, males, in feed, site: liver, lesion: one or several types, types not named, dosed 80 weeks, study length 82 weeks) “negative (inactive)”; (mouse, strain ASH-CS1, males, in feed, site: lung, lesion: adenoma, dosed 80 weeks, study length 82 weeks) “negative (inactive)”; (mouse, strain Swiss albino, females, in feed, site: liver, lesion: hepatoma, dosed 76 weeks, study length 76 weeks) “negative (inactive)”; (mouse, strain Swiss, females, in feed, site: urinary bladder, lesion: anaplastic carcinoma, dosed 91 weeks, study length 91 weeks) “negative (inactive)”; (mouse, strain Swiss, males, in feed, site: urinary bladder, lesion: one or several types, types not named, dosed 91 weeks, study length 91 weeks) “negative (inactive)”. For the same compound, the carcinogen call by setting is: (rat, strain Sprague-Dawley, both sexes, in feed, site: urinary bladder, lesion: papilloma, dosed 130 weeks, study length 130 weeks) “negative (inactive)”; (rat, strain Sprague-Dawley, both sexes, in feed, site: urinary bladder, lesion: transitional-cell carcinoma, dosed 130 weeks, study length 130 weeks) “negative (inactive)”.

`C[C@]12C=CC(=O)C=C1CC[C@@H]1[C@@H]2[C@@H](O)C[C@@]2(C)[C@H]1CC[C@]2(O)C(=O)COC(=O)CCCc1ccc(N(CCCl)CCCl)cc1`: the TD50 is, setting by setting: (rat, strain Sprague-Dawley, females, by gavage, site: any site (literature study), lesion: benign tumor, dosed 78 weeks, study length 104 weeks) 14 mg/kg/day (inactive); (rat, strain Sprague-Dawley, females, by gavage, site: any site (literature study), lesion: malignant tumor, dosed 78 weeks, study length 104 weeks) 21.6 mg/kg/day (inactive); (rat, strain Sprague-Dawley, females, by gavage, site: external auditory canal, lesion: squamous-cell carcinoma, dosed 78 weeks, study length 104 weeks) 19.2 mg/kg/day.
